Measured values as given in publication PMC10229426, “An optimized bioluminescent substrate for non-invasive imaging in the brain” (Nature Chemical Biology, 2023).
“Also recorded” adds a separate entry of the source.

Legend:
Antares luciferase = molecular target: T1, Antares luciferase (Oplophorus gracilirostris, UniProt Q9GV45, A31E/A60N/A81I/F95D/I117V/K70R/L54V/L99Q/M102K/N193R/P142E/Q151K/Q38R/Q45L/V71I/Y165I); experiment: Bioluminescence imaging of transgenic mice for substrate comparison (brain, Cre-driven Antares); type: in vivo, mouse
T1 construct: expressed in transfected cells; host or cells: transgenic mice with CAG-LSL-Antares at the H11 locus, crossed to Cre driver lines (neurons or liver)
From the text: Transgenic reporter mice with LSL-CAG-luciferase (Antares, FLuc or AkaLuc) inserted at the H11 locus (H11P) were generated by φC31-mediated recombination in blastocysts[48] by the Stanford Transgenic, Knockout and Tumor Model Center. For substrate comparisons, 2- to 4-month-old transgenic mice doubly hemizygous for a Camk2a-cre (Jackson Laboratory, 005359), Vgat-IRES-cre (Jackson Laboratory), Vglut2-IRES-cre (Jackson Laboratory, 016963) or Alb-cre (Jackson Laboratory, 003574) driver and a CAG-LSL-Antares, CAG-LSL-AkaLuc or CAG-LSL-FLuc reporter were anesthetized by inhalation of isoflurane for 5 min. An electric shaver was used to remove scalp hair in Camk2a-cre, Vglut2-IRES-cre or Vgat-IRES-cre mice or abdominal hair in Alb-cre mice. Nair depilatory cream (Church and Dwight) was then applied to the shaved area for 1 min, and remaining hair was removed with a piece of sterile gauze. The area was then rinsed with DPBS and cleaned with 70% ethanol with a piece of sterile gauze.
For mice expressing Antares, indicated amounts of Fz were dissolved in 480 µl of a PEG-300-based formulation consisting of 10% glycerol, 10% ethanol, 10% hydroxypropylcyclodextrin and 35% PEG-300 in water, or indicated amounts of lyophilized Fz analogs with P-407 vehicle were reconstituted in 150–500 µl of DPBS buffer. For mice expressing FLuc, indicated amounts of D-luciferin were dissolved in PBS. For mice expressing AkaLuc, 3 μmol (1.0 mg) of AkaLumine-HCl (Sigma-Aldrich) was dissolved in 150 μl of 0.9% NaCl. Substrates were then injected into the peritoneal cavity in the left lower quadrant, with the maximum injectable volume at 480 µl. Immediately after substrate injection, bioluminescent images were acquired in an Ami HT bioluminescence imaging system running Aura software version 3.1 or 4.0 (Spectral Instruments Imaging) for 15–30 min at intervals of 1 min. For comparing substrates at 1.3 µmol, the following imager settings were used: emission filter open, field of view of 25 cm, f-stop of 1.2, binning of 2 × 2 and exposure time of 2 s. For comparison with >1.3-µmol substrates, the following settings were used: emission filter open, field of view of 25 cm, f-stop of 1.2, binning of 1 × 1 and exposure time of 1 s. Pseudocolor images and intensity scale bars were generated with Aura software. Integrated luminescence was quantified using the Fiji version of the ImageJ program (NIH)[49], with further statistical analysis performed in GraphPad Prism (version 9.0.0).

[1] = In vivo substrate pharmacokinetics (plasma and brain); set-up: species or system C57BL/6 mice; conditions: for concentration at 5 min: male, C57BL/6, mouse, brain, ip, 5 min after i.p. 1.3 µmol, wild-type mice
Procedure: PK measurements were performed at Shanghai ChemPartner for Fz and compound 6 in 6- to 8-week-old overnight-fasted male C57BL/6 mice. Fz and compound 6 were formulated as clear solutions in 10% ethanol, 10% glycerol, 10% hydroxypropyl-β-cyclodextrin (Sigma-Aldrich), 35% PEG-300 and 35% water. Freshly prepared injectable doses (i.p., 20 mg per kg body weight for Fz and 21.6 mg per kg body weight for compound 6) were administered at 20 ml kg^–1. Each of the two measurement series consisted of four mice and two time points (series 1, predose and 0.083 h; series 2, 0.083 h and 0.167 h).
At each time point, ~90 µl of blood was collected into a K2EDTA tube via facial vein bleeding. Plasma samples were put on ice and centrifuged to obtain plasma samples (2,000g for 5 min at 4 °C) within 15 min of collection. The plasma samples were stored at –70 °C until analysis. For analysis, 20 µl of plasma sample was added to 20 µl of stabilizer (80:20 (vol:vol) mixture of 200 mg ml^–1 EDTA and 100 mM L-ascorbic acid in water).
At the terminal point of each series, a midline incision was made in the animal’s scalp, and the skin was retracted. The skull overlying the brain was removed. The whole brain was collected, rinsed with cold saline, dried on filtrate paper, weighed and snap-frozen by placing it into dry ice. No abnormal symptoms were observed during the studies. The brain samples were homogenized with 4 ml of stabilizer (80:20 (vol:vol) mixture of 200 mg ml^–1 EDTA and 100 mM L-ascorbic acid in water) per gram of tissue. The above samples (plasma or brain) were mixed with 120 µl of internal standard (Glipizide, 100 ng ml^–1) in acetonitrile. […] Compound concentrations were quantified using LC–MS/MS detection. […]
PK parameters were determined by the non-compartmental model of the non-compartmental analysis tool, Pharsight Phoenix WinNonlin 8.2 software. […] When the number of detected time points after Tmax was less than 3, the terminal half-life and the area under the plasma concentration-time curve from zero to infinity were not calculated.

[2] = Solubility in aqueous formulation with poloxamer-407 (P-407); type: physicochemical
Procedure: Stock samples of solid formulated Fz analogs were prepared using the following protocol. First, P-407 (Pluronic F127) was placed into a screw-cap glass vial. The polymer was then heated to 75 °C in a water bath until melted. Fz analogs dissolved in ethanol were added to the hot polymer, mixing well with a thin spatula. Additional rinses of Fz analogs in ethanol were added to the hot polymer for quantitative transfer. The solvent was then removed under vacuum. This concentrated sample was diluted with water to make a dispensing mixture of 4–9 mM Fz analogs in water. Next, this aqueous stock was aliquoted into glass vials, frozen and lyophilized overnight to give a yellow cake. For i.p. injection into mice, DPBS (Corning, 21-031-CV) was added to the vial and rocked to create a clear solution.

T1 sequence (Q9GV45 other isoform, or with tags, fused parts or gaps with the stated changes): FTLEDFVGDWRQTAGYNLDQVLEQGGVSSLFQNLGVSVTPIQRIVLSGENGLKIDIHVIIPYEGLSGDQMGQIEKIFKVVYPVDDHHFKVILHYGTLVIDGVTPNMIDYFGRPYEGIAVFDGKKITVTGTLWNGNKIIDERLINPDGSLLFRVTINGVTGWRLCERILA

Structure (SMILES)	brain signal distribution (Antares luciferase; Antares driven by Camk2a-cre)	brain signal distribution (Antares luciferase; i.p., CAG-LSL-Antares x Vgat-IRES-cre mice)	concentration at 5 min [1]	solubility of 1.3 μmol in P-407 formulation ([2]; 1.3 μmol)	brain brightness relative to Fz (Antares luciferase; 1.3 µmol i.p., Antares driven by Vglut2-IRES-cre or Camk2a-cre, listed as CFz)	peak light production in the brain relative to Fz (Antares luciferase; 1.3 μmol i.p., CAG-LSL-Antares x Vgat-IRES-cre)	brain bioluminescence of 4.2 µmol dose relative to 1.3-μmol dose (Antares luciferase; 4.2 µmol CFz with 20 mg P-407, i.p.)	peak brain signal relative to AkaLuc with AkaLumine (Antares luciferase; Antares with 1.3 µmol CFz vs AkaLuc with 3.0 µmol AkaLumine, i.p., Vgat-cre or Camk2a-cre double hemizygotes, listed as CFz)	kinetics of brain signal relative to AkaLuc–AkaLumine (Antares luciferase; Antares–CFz)	signal from the brain relative to D-luciferin with firefly luciferase (Antares luciferase; CFz paired with Antares)	bioavailability from plasma concentrations ([1]; i.p. 1.3 µmol, plasma at 5 and 10 min, vs Fz)	solubilization of 4.2 µmol in P-407 formulation ([2]; 4.2 µmol)
O=c1c(Cc2ccco2)nc2c(Cc3ccccc3)[nH]c(-c3ccccc3)cn1-2 [Fz, furimazine, reference compound]	expected forebrain-enriched signal	signal from both the forebrain and hindbrain	1100 nM	not soluble in P-407	–	–	–	–	–	–	–	–
O=c1c(Cc2ccco2)nc2c(Cc3ccccc3)[nH]c(-c3cccc(F)c3F)cn1-2 [compound 6, cephalofurimazine]	–	–	1400 nM	–	at least 2.5 fold	significantly brighter	6.5 fold	matches AkaLuc–AkaLumine/TokeOni in brightness; also recorded: comparable peak signal	rise and decay more quickly	greater than 20 fold	improved bioavailability after i.p. injection	a small amount of CFz residue already remained with 20 mg of P-407 but not 30 mg
